{
  "source": "patent US10172816B2",
  "about": "“Method of treating chronic obstructive pulmonary disease (CPD) with verproside” (YUNGJIN PHARMACEUTICAL CO., LTD, priority 2013, dated 2019)",
  "key": {"MMP-9": {"test_system": "MMP-9", "assay": "COPD rat model: MMP-9 activity in lung tissue (gelatin zymography)", "type": "in vivo, Sprague-Dawley rat", "conditions": "ATC2 and Verproside 30 mg/kg, p.o.; level similar to Daxas group", "description": "The exposure of cigarette smoke was performed by using a cigarette smoke generator (CH Technology Corp. USA). In a detail, 1 hour after the orally administration of test samples using by Head/nose-only exposure unit (TSE System, German) according to nose-only method, the cigarette smoke was exposed by inhalation for 3 days every hour. 8 puffs (volume 35 ml, duration 2 sec, interval 1 time/min) per one piece of standard cigarette was performed in the experiment. […]\nThe lung tissue of rat was homogenized with Tissue lysis buffer (C3228, Sigma-Aldrich, USA) treated with a protease inhibitor (11836153001, Roche, Germany) and the homogenized lung tissue was centrifuged at 12000 rpm for 10 mins to isolate the supernatant. The protein assay reagent (500-0006, Bio-Rad, USA) was used to quantification. […] The density of MMP-9 band was determined using by Chemi-doc (170-8070, Bio-Rad, USA) to determine the activity of MMP-9."}, "IL-1β, IL-6, and TNF-α": {"test_system": "IL-1β, IL-6, and TNF-α", "assay": "COPD rat model (cigarette smoke): cytokine release in BALF by ELISA", "type": "in vivo, Sprague-Dawley rat", "conditions": "ATC2 and Verproside 30 mg/kg, Daxas 1 mg/kg, p.o.", "method": "The exposure of cigarette smoke was performed by using a cigarette smoke generator (CH Technology Corp. USA). In a detail, 1 hour after the orally administration of test samples using by Head/nose-only exposure unit (TSE System, German) according to nose-only method, the cigarette smoke was exposed by inhalation for 3 days every hour. 8 puffs (volume 35 ml, duration 2 sec, interval 1 time/min) per one piece of standard cigarette was performed in the experiment. The tested groups were divided into five groups, i.e., (i) normal group with no treatment (normal control, NC), (ii) control group exposed with cigarette smoke (COPD), (iii) test sample group treated with Daxas (1 mg/kg, p.o) 1 hr prior to cigarette smoke exposure (DA), (iv) test sample group treated with ATC2 (30 mg/ml, p.o) 1 hr prior to cigarette smoke exposure (YPL), and (v) test sample group treated with Verproside (30 mg/ml, p.o) 1 hr prior to cigarette smoke exposure (Ver). After the end of experiment, the blood, BALF, and pneumonocyte of each rat were isolated and collected to test.\nThe level of IL-1β, IL-6, and TNF-a (R&D System, USA) in BALF isolated from the rat was determined by enzyme-linked immuno-sorbent assay (ELISA). The analysis of each cytokine was performed according to the manufacturer's manual, and the absorbance was determined at 450 nm by ELISA leader (340PC384, Molecular Devices, USA)."}, "Mucin 5A/C": {"test_system": "Mucin 5A/C", "assay": "Acrolein-induced Mucin 5A/C expression in A549 cells (RT-PCR)", "type": "cell-based, human", "conditions": "pre-treated 1 hour, then 30 nM acrolein, dose dependent", "description": "The diluted A549 cell line (ATCC, CCL-185) with DMEM medium supplemented with 5% phenol red and FBS (Fetal Bovine Serum) was seeded in 6 well plates (4×10^5 cells/well) to adhere thereto for a night, and 20 and 40 microgram/ml of ATC2 extract were treated with A549 cell line for 1 hours. 30 nM acrolein was treated therewith to induce Mucin 5A/C expression. The medium was removed the cell, washed with PBS solution and homogenized with Trizol (Invitrogen, CA, USA) for the isolation of ribonucleic acids from the cells for 5 mins. the cells were collected, transferred to centrifugal separator, completely mixed with chloroform for 15 seconds, left alone for 3 mins and centrifuged for 15 mins at the speed of 14,000 rpm. The supernatant containing ribonucleic acid was transferred to new tube and mixed with isopropylalcohol for 10 mins. The solution was centrifuged to discard the supernatant and 75% ethanol was added to the precipitate. The precipitate was centrifuged for 5 mins at the speed of 10,000 rpm and the supernatant was discarded. The precipitated ribonucleic acid was dried at room temperature for 20 mins. […] After the quantification of ribonucleic acid, the complementary DNA was synthesized using by 1 microgram of RNA and RT-kit (Omniscript RT kit, Qiagen, USA) and the synthetic cDNA was used as a template. […]"}},
  "data": [
    {"smiles": "O=C(O[C@H]1[C@@H]2C=CO[C@@H](O[C@@H]3O[C@H](CO)[C@@H](O)[C@H](O)[C@H]3O)[C@@H]2[C@@]2(CO)O[C@@H]12)c1ccc(O)c(O)c1", "note": "[verproside, 6-O-(3,4-dihydroxybenzoyl) catalpol]", "values": [
      {"measurement": "activity of MMP-9 in lung tissue", "setting": "MMP-9", "value": "remarkably reduced activity"},
      {"measurement": "level of cytokines (IL-1β, IL-6, TNF-α) in BALF compared with COPD induced group", "setting": "IL-1β, IL-6, and TNF-α", "value": "significantly reduced level"},
      {"measurement": "expression of Mucin 5A/C (mRNA, RT-PCR)", "setting": "Mucin 5A/C", "value": "inhibited"}
    ]}
  ]
}
